Laboratory results reported in the supplement of paper PMC13207355.
± gives the standard deviation of the averaged measurements.

Legend:
Conditions in all cases: exposure time: 72 h
E28 [1] = patient-derived glioblastoma stem cells of classical subtype; test: surviving fraction (nuclei count normalised to DMSO); higher = more cells surviving (less toxic)
E34 [2] = patient-derived glioblastoma stem cells of proneural subtype; test: as above
E13 [3] = patient-derived glioblastoma stem cells of classical subtype; test: as above
E21 [4] = patient-derived glioblastoma stem cells of mesenchymal subtype; test: as above
FT3469 [5] = normal neural stem cell line; test: as above
E57 [6] = patient-derived glioblastoma stem cells of mesenchymal subtype; test: as above
E28 [7] = test: phenotypic distance (Euclidean, principal components) from DMSO controls (arbitrary units); higher = stronger morphological change
E34 [8] = test: as above
E13 [9] = test: as above
E21 [10] = test: as above
FT3469 [11] = test: as above
E57 [12] = test: as above
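For phenotypic distance (Euclidean, principal components) from DMSO controls in this document: cell Painting imaging in 384-well plates, CellProfiler features reduced to at least 20 principal components, Euclidean distance versus same-plate DMSO vehicle wells (0.1% v/v), median over six images per well.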
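For surviving fraction (nuclei count normalised to DMSO) in this document: nuclei counted by high-content imaging of Hoechst-stained cells in laminin-coated 384-well plates, relative to 0.1% DMSO vehicle wells, with staurosporine as cell-death control.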

## CCn1cc(-c2ccnc3[nH]c(-c4cccc(CN(C)C)c4)cc23)c(-c2ccc(NC(=O)N(C)C)cc2)n1
E28 [1]; 4.1 nM
  surviving fraction: 0.639 ± 0.046
E28 [1]; 12.3 nM
  surviving fraction: 0.603 ± 0.008
E28 [1]; 37 nM
  surviving fraction: 0.542 ± 0.039
E28 [1]; 111.1 nM
  surviving fraction: 0.5559 ± 0.002
E28 [1]; 333.3 nM
  surviving fraction: 0.549 ± 0.016
E28 [1]; 1000 nM
  surviving fraction: 0.53 ± 0.023
E28 [1]; 3000 nM
  surviving fraction: 0.397 ± 0.11
E34 [2]; 4.1 nM
  surviving fraction: 0.664 ± 0.086
E34 [2]; 12.3 nM
  surviving fraction: 0.622 ± 0.079
E34 [2]; 37 nM
  surviving fraction: 0.787 ± 0.074
E34 [2]; 111.1 nM
  surviving fraction: 0.815 ± 0.13
E34 [2]; 333.3 nM
  surviving fraction: 0.842 ± 0.02
E34 [2]; 1000 nM
  surviving fraction: 0.8037 ± 0.0053
E34 [2]; 3000 nM
  surviving fraction: 0.673 ± 0.082
E13 [3]; 4.1 nM
  surviving fraction: 0.468 ± 0.038
E13 [3]; 12.3 nM
  surviving fraction: 0.437 ± 0.068
E13 [3]; 37 nM
  surviving fraction: 0.458 ± 0.033
E13 [3]; 111.1 nM
  surviving fraction: 0.46 ± 0.046
E13 [3]; 333.3 nM
  surviving fraction: 0.49 ± 0.014
E13 [3]; 1000 nM
  surviving fraction: 0.456 ± 0.065
E13 [3]; 3000 nM
  surviving fraction: 0.439 ± 0.044
E21 [4]; 4.1 nM
  surviving fraction: 0.418 ± 0.088
E21 [4]; 12.3 nM
  surviving fraction: 0.428 ± 0.015
E21 [4]; 37 nM
  surviving fraction: 0.442 ± 0.031
E21 [4]; 111.1 nM
  surviving fraction: 0.449 ± 0.086
E21 [4]; 333.3 nM
  surviving fraction: 0.359 ± 0.025
E21 [4]; 1000 nM
  surviving fraction: 0.4316 ± 0.0038
E21 [4]; 3000 nM
  surviving fraction: 0.314 ± 0.053
FT3469 [5]; 4.1 nM
  surviving fraction: 0.759 ± 0.042
FT3469 [5]; 12.3 nM
  surviving fraction: 0.76 ± 0.051
FT3469 [5]; 37 nM
  surviving fraction: 0.788 ± 0.021
FT3469 [5]; 111.1 nM
  surviving fraction: 0.844 ± 0.086
FT3469 [5]; 333.3 nM
  surviving fraction: 0.708 ± 0.033
FT3469 [5]; 1000 nM
  surviving fraction: 0.729 ± 0.056
FT3469 [5]; 3000 nM
  surviving fraction: 0.591 ± 0.044
E57 [6]; 4.1 nM
  surviving fraction: 0.385 ± 0.037
E57 [6]; 12.3 nM
  surviving fraction: 0.338 ± 0.016
E57 [6]; 37 nM
  surviving fraction: 0.287 ± 0.016
E57 [6]; 111.1 nM
  surviving fraction: 0.325 ± 0.0066
E57 [6]; 333.3 nM
  surviving fraction: 0.306 ± 0.016
E57 [6]; 1000 nM
  surviving fraction: 0.314 ± 0.021
E57 [6]; 3000 nM
  surviving fraction: 0.221 ± 0.011
E28 [7]; 4.1 nM
  phenotypic distance: 2.81 ± 0.22
E28 [7]; 12.3 nM
  phenotypic distance: 2.81 ± 0.44
E28 [7]; 37 nM
  phenotypic distance: 2.55 ± 0.41
E28 [7]; 111.1 nM
  phenotypic distance: 2.69 ± 0.18
E28 [7]; 333.3 nM
  phenotypic distance: 2.57 ± 0.28
E28 [7]; 1000 nM
  phenotypic distance: 2.83 ± 0.15
E28 [7]; 3000 nM
  phenotypic distance: 2.95 ± 0.096
E34 [8]; 4.1 nM
  phenotypic distance: 2.75 ± 0.24
E34 [8]; 12.3 nM
  phenotypic distance: 2.68 ± 0.43
E34 [8]; 37 nM
  phenotypic distance: 2.46 ± 0.13
E34 [8]; 111.1 nM
  phenotypic distance: 2.4 ± 0.34
E34 [8]; 333.3 nM
  phenotypic distance: 2.43 ± 0.12
E34 [8]; 1000 nM
  phenotypic distance: 2.62 ± 0.25
E34 [8]; 3000 nM
  phenotypic distance: 1.93 ± 0.35
E13 [9]; 4.1 nM
  phenotypic distance: 4.52 ± 0.16
E13 [9]; 12.3 nM
  phenotypic distance: 4.8 ± 0.56
E13 [9]; 37 nM
  phenotypic distance: 4.56 ± 0.091
E13 [9]; 111.1 nM
  phenotypic distance: 5.0354 ± 0.00092
E13 [9]; 333.3 nM
  phenotypic distance: 4.64 ± 0.07
E13 [9]; 1000 nM
  phenotypic distance: 4.84 ± 0.39
E13 [9]; 3000 nM
  phenotypic distance: 3.74 ± 0.68
E21 [10]; 4.1 nM
  phenotypic distance: 4.9 ± 0.059
E21 [10]; 12.3 nM
  phenotypic distance: 5.1 ± 0.052
E21 [10]; 37 nM
  phenotypic distance: 5.06 ± 0.62
E21 [10]; 111.1 nM
  phenotypic distance: 5.32 ± 0.66
E21 [10]; 333.3 nM
  phenotypic distance: 5.21 ± 0.49
E21 [10]; 1000 nM
  phenotypic distance: 4.91 ± 0.57
E21 [10]; 3000 nM
  phenotypic distance: 5.07 ± 0.28
FT3469 [11]; 4.1 nM
  phenotypic distance: 1.96 ± 0.42
FT3469 [11]; 12.3 nM
  phenotypic distance: 2.32 ± 0.26
FT3469 [11]; 37 nM
  phenotypic distance: 2 ± 0.04
FT3469 [11]; 111.1 nM
  phenotypic distance: 2.07 ± 0.15
FT3469 [11]; 333.3 nM
  phenotypic distance: 2.13 ± 0.28
FT3469 [11]; 1000 nM
  phenotypic distance: 2.98 ± 1.3
FT3469 [11]; 3000 nM
  phenotypic distance: 2.08 ± 0.33
E57 [12]; 4.1 nM
  phenotypic distance: 4.79 ± 0.41
E57 [12]; 12.3 nM
  phenotypic distance: 4.9 ± 0.57
E57 [12]; 37 nM
  phenotypic distance: 6.03 ± 0.14
E57 [12]; 111.1 nM
  phenotypic distance: 5.9 ± 0.088
E57 [12]; 333.3 nM
  phenotypic distance: 6.027 ± 0.058
E57 [12]; 1000 nM
  phenotypic distance: 5.9 ± 0.4
E57 [12]; 3000 nM
  phenotypic distance: 5.4 ± 0.3

## C[C@H](NC(=O)[C@@H](O)c1cc(F)cc(F)c1)C(=O)N[C@@H]1C(=O)N(C)c2ccccc2-c2ccccc21
E28 [1]; 4.1 nM
  surviving fraction: 0.852 ± 0.073
E28 [1]; 12.3 nM
  surviving fraction: 0.866 ± 0.055
E28 [1]; 37 nM
  surviving fraction: 0.942 ± 0.074
E28 [1]; 111.1 nM
  surviving fraction: 0.918 ± 0.13
E28 [1]; 333.3 nM
  surviving fraction: 0.925 ± 0.024
E28 [1]; 1000 nM
  surviving fraction: 0.835 ± 0.086
E28 [1]; 3000 nM
  surviving fraction: 0.891 ± 0.0093
E34 [2]; 4.1 nM
  surviving fraction: 0.841 ± 0.3
E34 [2]; 12.3 nM
  surviving fraction: 0.811 ± 0.045
E34 [2]; 37 nM
  surviving fraction: 0.801 ± 0.099
E34 [2]; 111.1 nM
  surviving fraction: 0.907 ± 0.25
E34 [2]; 333.3 nM
  surviving fraction: 0.862 ± 0.14
E34 [2]; 1000 nM
  surviving fraction: 0.775 ± 0.11
E34 [2]; 3000 nM
  surviving fraction: 0.875 ± 0.1
E13 [3]; 4.1 nM
  surviving fraction: 1.02 ± 0.15
E13 [3]; 12.3 nM
  surviving fraction: 1.075 ± 0.0081
E13 [3]; 37 nM
  surviving fraction: 1.02 ± 0.065
E13 [3]; 111.1 nM
  surviving fraction: 1.03 ± 0.024
E13 [3]; 333.3 nM
  surviving fraction: 1.08 ± 0.081
E13 [3]; 1000 nM
  surviving fraction: 1.07 ± 0.046
E13 [3]; 3000 nM
  surviving fraction: 0.995 ± 0.058
E21 [4]; 4.1 nM
  surviving fraction: 0.89 ± 0.018
E21 [4]; 12.3 nM
  surviving fraction: 0.9941 ± 0.0084
E21 [4]; 37 nM
  surviving fraction: 0.938 ± 0.015
E21 [4]; 111.1 nM
  surviving fraction: 0.902 ± 0.039
E21 [4]; 333.3 nM
  surviving fraction: 0.872 ± 0.072
E21 [4]; 1000 nM
  surviving fraction: 0.883 ± 0.036
E21 [4]; 3000 nM
  surviving fraction: 0.898 ± 0.035
FT3469 [5]; 4.1 nM
  surviving fraction: 0.89 ± 0.062
FT3469 [5]; 12.3 nM
  surviving fraction: 0.882 ± 0.071
FT3469 [5]; 37 nM
  surviving fraction: 0.89 ± 0.049
FT3469 [5]; 111.1 nM
  surviving fraction: 0.906 ± 0.032
FT3469 [5]; 333.3 nM
  surviving fraction: 0.896 ± 0.084
FT3469 [5]; 1000 nM
  surviving fraction: 0.875 ± 0.048
FT3469 [5]; 3000 nM
  surviving fraction: 0.828 ± 0.041
E57 [6]; 4.1 nM
  surviving fraction: 0.906 ± 0.036
E57 [6]; 12.3 nM
  surviving fraction: 0.947 ± 0.018
E57 [6]; 37 nM
  surviving fraction: 0.939 ± 0.027
E57 [6]; 111.1 nM
  surviving fraction: 0.922 ± 0.042
E57 [6]; 333.3 nM
  surviving fraction: 0.9779 ± 0.0074
E57 [6]; 1000 nM
  surviving fraction: 0.943 ± 0.089
E57 [6]; 3000 nM
  surviving fraction: 0.931 ± 0.12
E28 [7]; 4.1 nM
  phenotypic distance: 0.845 ± 0.08
E28 [7]; 12.3 nM
  phenotypic distance: 0.88 ± 0.22
E28 [7]; 37 nM
  phenotypic distance: 0.919 ± 0.12
E28 [7]; 111.1 nM
  phenotypic distance: 0.756 ± 0.19
E28 [7]; 333.3 nM
  phenotypic distance: 0.96 ± 0.036
E28 [7]; 1000 nM
  phenotypic distance: 1.03 ± 0.061
E28 [7]; 3000 nM
  phenotypic distance: 1.13 ± 0.34
E34 [8]; 4.1 nM
  phenotypic distance: 1.26 ± 0.65
E34 [8]; 12.3 nM
  phenotypic distance: 0.926 ± 0.098
E34 [8]; 37 nM
  phenotypic distance: 1.15 ± 0.07
E34 [8]; 111.1 nM
  phenotypic distance: 1.04 ± 0.25
E34 [8]; 333.3 nM
  phenotypic distance: 1.01 ± 0.31
E34 [8]; 1000 nM
  phenotypic distance: 1.24 ± 0.14
E34 [8]; 3000 nM
  phenotypic distance: 1.49 ± 0.21
E13 [9]; 4.1 nM
  phenotypic distance: 0.77 ± 0.23
E13 [9]; 12.3 nM
  phenotypic distance: 0.711 ± 0.02
E13 [9]; 37 nM
  phenotypic distance: 0.622 ± 0.052
E13 [9]; 111.1 nM
  phenotypic distance: 0.7795 ± 0.0029
E13 [9]; 333.3 nM
  phenotypic distance: 0.785 ± 0.014
E13 [9]; 1000 nM
  phenotypic distance: 0.723 ± 0.061
E13 [9]; 3000 nM
  phenotypic distance: 0.862 ± 0.29
E21 [10]; 4.1 nM
  phenotypic distance: 0.769 ± 0.025
E21 [10]; 12.3 nM
  phenotypic distance: 2.05 ± 0.56
E21 [10]; 37 nM
  phenotypic distance: 1.5 ± 0.98
E21 [10]; 111.1 nM
  phenotypic distance: 0.896 ± 0.046
E21 [10]; 333.3 nM
  phenotypic distance: 3.99 ± 4.1
E21 [10]; 1000 nM
  phenotypic distance: 1.02 ± 0.12
E21 [10]; 3000 nM
  phenotypic distance: 1.01 ± 0.22
FT3469 [11]; 4.1 nM
  phenotypic distance: 1.01 ± 0.32
FT3469 [11]; 12.3 nM
  phenotypic distance: 0.677 ± 0.012
FT3469 [11]; 37 nM
  phenotypic distance: 0.997 ± 0.026
FT3469 [11]; 111.1 nM
  phenotypic distance: 0.721 ± 0.25
FT3469 [11]; 333.3 nM
  phenotypic distance: 1.08 ± 0.19
FT3469 [11]; 1000 nM
  phenotypic distance: 0.977 ± 0.058
FT3469 [11]; 3000 nM
  phenotypic distance: 0.991 ± 0.17
E57 [12]; 4.1 nM
  phenotypic distance: 1.25 ± 0.31
E57 [12]; 12.3 nM
  phenotypic distance: 1.21 ± 0.19
E57 [12]; 37 nM
  phenotypic distance: 1.87 ± 1.2
E57 [12]; 111.1 nM
  phenotypic distance: 1.2 ± 0.015
E57 [12]; 333.3 nM
  phenotypic distance: 1.284 ± 0.0023
E57 [12]; 1000 nM
  phenotypic distance: 1.34 ± 0.35
E57 [12]; 3000 nM
  phenotypic distance: 1.43 ± 0.39
